Measured values published in patent US20140288182A1, “USE OF CARBAMIDE PEROXIDE INJECTION IN PREPARATION OF VIRUS INACTIVATION MEDICAMENTS FOR TREATING DISEASES” (Wuxi Zhaozhen Radiation Technology Co., Ltd., priority 2013, published 2014).

Tested on: thoracic aorta blood vessel plaque
Assay: New-Zealand rabbit model of blood vessel plaque (CTA angiography and MR)
Assay type: in vivo
Method: The New-Zealand rabbit model of blood vessel plaque is a common animal experimental model. […] The blood vessel plaque was taken as the target region and positioned, and a radiotherapy plan was made. 1.5 h after intraperitoneal injection of 5-ALA (80 mg/kg body weight), the substrate was intravenously dripped, and the irradiation to the blood vessel plaque was performed once with 5 Gy. The New-Zealand rabbit was continually fed for 1 week.

NCC(=O)CCC(=O)O [5-ALA]
regression of thoracic aorta blood vessel plaque (CTA angiography and MR detection) (5-ALA 80 mg/kg intraperitoneal 1.5 h before, substrate intravenously dripped, plaque irradiated once with 5 Gy, examined on the seventh day after treatment): completely disappeared | plaque in the blood vessel of a rabbit by CT examination (FIG. 3) (photosensitizer given orally, irradiated with high energy X-ray, CT examination 5 days later): eliminated
